Reference: patent publication US10550073B2, “Benzamide derivative” (CSPC ZHONGQI PHARMACEUTICAL TECHNOLOGY (SHIJIAZHUANG) CO., …, priority 2015, dated 2020)

How the values were obtained:
TNF-α = test: In vitro cell experiment: LPS-stimulated TNF-α release in THP-1 cells (ELISA); format: cell-based; conditions: Homo sapiens; TNF-α in supernatant of THP-1 cells, compound 2 h then LPS 10 μg/ml 2 h
From the text: I. In Vitro Cell Experiment
Cells: human monocytic leukemia THP-1 cells (obtained from the Shanghai Cell Bank of Chinese Academy of Sciences).
Lipopolysaccharides: from Escherichia coli O55: B5, L2880 (Sigma).
Kit: Human TNF-α Elisa MAX Deluxe Set, 430206 (Biolegend)

p38a = p38a (Homo sapiens (Human), UniProt Q16539); test: Assay of p38 kinase activity (fluorescence, peptide substrate); format: biochemical; conditions: 40 nM p38a, 100 μM ATP, 90 minutes
p38a, sequence (Q16539 whole entry): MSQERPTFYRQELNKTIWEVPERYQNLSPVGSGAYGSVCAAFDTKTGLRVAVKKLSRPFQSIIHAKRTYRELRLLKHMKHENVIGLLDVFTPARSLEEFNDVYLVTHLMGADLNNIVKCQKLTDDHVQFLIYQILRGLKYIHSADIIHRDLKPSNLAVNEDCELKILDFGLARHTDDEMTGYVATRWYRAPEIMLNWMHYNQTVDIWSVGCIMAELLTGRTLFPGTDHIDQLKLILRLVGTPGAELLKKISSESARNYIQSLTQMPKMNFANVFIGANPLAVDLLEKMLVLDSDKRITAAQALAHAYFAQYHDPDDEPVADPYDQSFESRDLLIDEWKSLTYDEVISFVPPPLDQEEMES
Description: II. Assay of p38 Kinase Activity
Experimental Method: 40 nM p38a was added into a reaction buffer, which include 20 mM HEPES (4-hydroxyethylpiperazine ethanesulfonic acid), 5 mM MgCl2 and 1 mM DTT (dithiothreitol) at pH 7.4. 40 μM phosphorylated peptide substrate was added, followed by different concentrations of drugs and 100 μM ATP (adenosine triphosphate), and reacted for 90 minutes in dark. […] The IC50 values of the compounds were obtained according to the fluorescence values.

Structure (SMILES) | IC50 (TNF-α) | IC50 (p38a)
Cc1c(F)cc(C(=O)NC2CC2)cc1-c1ccc(C(=O)NC2CCCCC2)cc1 [Example 24, N^4′-cyclohexyl-N^3-cyclopropyl-5-fluoro-6-methyl-[1,1′-biphenyl]-3,4′-dicarboxamide] | 5 to 10 nM | –
Cc1c(F)cc(C(=O)NC2CC2)cc1-c1ccc(C(=O)N(C)C2CCCCC2)nn1 [Example 62] | 5 to 10 nM | < 5 nM
CCCCNc1nc2ccc(-c3cc(C(=O)NC4CC4)cc(F)c3C)cc2s1 [Example 52, 3-(2-(butylamino)benzo [d]thiazol-6-yl)-N-cyclopropyl-5-fluoro-4-methylbenzamide] | 5 to 10 nM | 5 to 10 nM
Cc1c(F)cc(C(=O)NC2CC2)cc1-c1ccc2nc(NC3CCCC3)sc2c1 [Example 54, 3-(2-(cyclopentylamino)benzo[d]thiazol-6-yl)-N-cyclopropyl-5-fluoro-4-methylbenzamide] | 5 to 10 nM | –
Cc1c(F)cc(C(=O)NC2CC2)cc1-c1ccc(C(=O)N2CCCCCC2)cn1 [Example 14] | 5 to 10 nM | –
C=CCNC(=O)c1cc(F)c(C)c(-c2ccc(C(=O)NCC(C)(C)C)cn2)c1 [Example 81, 6-(5-(allylcarbamoyl)-3-fluoro-2-methylphenyl)-N-neopentylnicotinamide] | 5 to 10 nM | –
Cc1c(F)cc(C(=O)NC2CC2)cc1-c1ccc(C(=O)N2CCC(C)CC2)s1 [Example 56, N-cyclopropyl-3-fluoro-4-methyl-5-(5-(4-methylpiperidin-1-carbonyl)thiophen-2-yl)benzamide] | 5 to 10 nM | 5 to 10 nM
Cc1c(F)cc(C(=O)NC2CC2)cc1-c1ccc(C(=O)N(C)C2CCCC2)cc1 [Example 23, N^4′-cyclopentyl-N^3-cyclopropyl-5-fluoro-N^4′,6-dimethyl-[1,1′-biphenyl]-3,4′-dicarboxamide] | 5 to 10 nM | –
C=CCNC(=O)c1cc(F)c(C)c(-c2ccc(C(=O)NC3CCCC3)nn2)c1 [Example 79, 6-(5-(allylcarbamoyl)-3-fluoro-2-methylphenyl)-N-cyclopentylpyridazin-3-carboxamide] | 5 to 10 nM | < 5 nM
Cc1c(F)cc(C(=O)NC2CC2)cc1-c1ccc(C(=O)N2CCCCC2)s1 [Example 55, N-cyclopropyl-3-fluoro-4-methyl-5-(5-(piperidin-1-carbonyl)thiophen-2-yl) benzamide] | 5 to 10 nM | 5 to 10 nM
Cc1c(F)cc(C(=O)NC2CC2)cc1-c1ccc(C(=O)N2CCC(C)CC2)cc1 [Example 26, N-cyclopropyl-5-fluoro-6-methyl-4′-(4-methylpiperidin-1-carbonyl)-[1,1′-biphenyl]-3-carboxamide] | 5 to 10 nM | –
Cc1c(F)cc(C(=O)NC2CC2)cc1-c1ccc(C(=O)N2CCCCCC2)cc1 [Example 28, 4′-(azepane-1-carbonyl)-N-cyclopropyl-5-fluoro-6-methyl-[1,1′-biphenyl]-3-carboxamide] | 5 to 10 nM | –
Cc1c(F)cc(C(=O)NC2CC2)cc1-c1ccc(C(=O)NCCC(C)C)nn1 [Example 60, 6-(5-(cyclopropylcarbamoyl)-3-fluoro-2-methylphenyl)-N-isopentylpyridazin-3-carboxamide] | 5 to 10 nM | < 5 nM
Cc1c(F)cc(C(=O)NC2CC2)cc1-c1ccc(NC(=O)C2CCCCC2)c(F)c1 [Example 47, 4′-(cyclohexanecarboxamido)-N-cyclopropyl-3′,5-difluoro-6-methyl-[1,1′-biphenyl]-3-carboxamide] | 5 to 10 nM | –
Cc1cc(-c2cc(C(=O)NC3CC3)cc(F)c2C)ccc1NC(=O)NC1CCCC1 [Example 50, 4′-(3-cyclopentylureido)-N-cyclopropyl-5-fluoro-3′,6-dimethyl-[1,1′-biphenyl]-3-carboxamide] | < 5 nM | –
CCCCCNC(=O)c1ccc(-c2cc(C(=O)NC3CC3)cc(F)c2C)nc1 [Example 9, 6-(5-(cyclopropylcarbamoyl)-3-fluoro-2-methylphenyl)-N-pentylnicotinamide] | 5 to 10 nM | 5 to 10 nM
C=CCNC(=O)c1cc(F)c(C)c(-c2ccc(C(=O)NC3CCCCC3)nn2)c1 [Example 80, 6-(5-(allylcarbamoyl)-3-fluoro-2-methylphenyl)-N-cyclohexylpyridazin-3-carboxamide] | 5 to 10 nM | < 5 nM
CCCN(CCC)C(=O)c1ccc(-c2cc(C(=O)NC3CC3)cc(F)c2C)cc1 [Example 20, N^3-cyclopropyl-5-fluoro-6-methyl-N^4′,N^4′-dipropyl-[1,1′-biphenyl]-3,4′-dicarboxamide] | 5 to 10 nM | –

Now from value to molecule:

IC50 (TNF-α) | IC50 (p38a) | Structure (SMILES)
< 5 nM | < 5 nM | Cc1c(F)cc(C(=O)NC2CC2)cc1-c1ccc(C(=O)NC2CCCC2)c(F)c1 [Example 32, N^4′-cyclopentyl-N^3-cyclopropyl-3′,5-difluoro-6-methyl-[1,1′-biphenyl]-3,4′-dicarboxamide]
< 5 nM | < 5 nM | Cc1c(F)cc(C(=O)NC2CC2)cc1-c1ccc(C(=O)NCC(C)C)c(F)c1 [Example 30, N^3-cyclopropyl-3′,5-difluoro-N^4′-isobutyl-6-methyl-[1,1′-biphenyl]-3,4′-dicarboxamide]
< 5 nM | – | Cc1c(F)cc(C(=O)NC2CC2)cc1-c1ccc(C(=O)NC2CCCC2)cc1 [Example 22]
< 5 nM | – | CCC(C)(C)NC(=O)c1ccc(-c2cc(C(=O)NC3CC3)cc(F)c2C)cc1N [Example 41, 3′-amino-N^3-cyclopropyl-5-fluoro-6-methyl-N^4′-(tertpentyl)-[1,1′-biphenyl]-3,4′-dicarboxamide]
< 5 nM | – | Cc1c(F)cc(C(=O)NC2CC2)cc1-c1ccc(C(=O)N(C)C2CCCC2)c(F)c1 [Example 33, N^4′-cyclopentyl-N^3-cyclopropyl-3′,5-difluoro-N^4′,6-dimethyl-[1,1′-biphenyl]-3,4′-dicarboxamide]
< 5 nM | < 5 nM | Cc1c(F)cc(C(=O)NC2CC2)cc1-c1ccc(C(=O)NCC(C)C)nc1 [Example 15, 5-(5-(cyclopropylcarbamoyl)-3-fluoro-2-methylphenyl)-N-isobutylpyridin-2-formamide]
< 5 nM | 5 to 10 nM | Cc1c(F)cc(C(=O)NC2CC2)cc1-c1ccc2nc(NCC(C)C)sc2c1 [Example 51, N-cyclopropyl-3-fluoro-5-(2-(isobutylamino)benzo[d]thiazol-6-yl)-4-methylbenzamide]
< 5 nM | – | Cc1c(F)cc(C(=O)NC2CC2)cc1-c1ccc(C(=O)NC2CCCCC2)cn1 [Example 10, N-cyclohexyl-6-(5-(cyclopropylcarbamoyl)-3-fluoro-2-methylphenyl) nicotinamide]
< 5 nM | – | Cc1c(F)cc(C(=O)NC2CC2)cc1-c1ccc(C(=O)NC2CCCC2)nc1 [Example 17, N-cyclopentyl-5-(5-(cyclopropylcarbamoyl)-3-fluoro-2-methylphenyl)pyridin-2-foramamide]
< 5 nM | 5 to 10 nM | Cc1c(F)cc(C(=O)NC2CC2)cc1-c1ccc(C(=O)N(C)C2CCCCC2)cc1 [Example 25, N^4′-cyclohexyl-N^3-cyclopropyl-5-fluoro-N^4′,6-dimethyl-[1,1′-biphenyl]-3,4′-dicarboxamide]
< 5 nM | < 5 nM | Cc1c(F)cc(C(=O)NC2CC2)cc1-c1ccc(C(=O)N(C)CC(C)C)c(F)c1 [Example 31, N^3-cyclopropyl-3′,5-difluoro-N^4′-isobutyl-N^4′,6-dimethyl-[1,1′-biphenyl]-3,4′-dicarboxamide]
